Assay results as given in article PMC12392461, “Beyond Estrogenicity: A Comparative Assessment of Bisphenol A and Its Alternatives in In Vitro Assays Questions Safety of Replacements” (Environmental Science & Technology, 2025).
Read-outs that look alike come from different tables or passages of the source.

Tests used:
[1] = tested on: Antioxidant response element; assay: MitoOxTox: oxidative stress response in AREc32; settings: for EC10, linear / logEC10: Bioassay ARE, dosing range all; for EC10, linear: linear model fit; for logEC10: log-logistic model fit
Description: (§1) All bioassay media components and the ERα-UAS-bla GripTite and PPARγ-UAS-bla cells were obtained from Thermo Fisher Scientific (Waltham, MA, USA). AREc32 reporter gene cells based on MCF7 were provided by C. Roland Wolf (Cancer Research UK); AhR CALUX cells (H4L7.5c2 derived from H4IIe) were provided by Michael Denison (UC Davis, USA); and SH-SY5Y cells were purchased from Sigma-Aldrich.
(§2) Cell culture conditions and bioassay protocols including response detection are provided in Text S2.1–2.4 and Table S3. − Cell viability was determined from cell confluency using an IncuCyte S3 Live-Cell Analysis System (Sartorius AG, Essen, Germany) before and after exposure, except for SH-SY5Y cells (live–dead staining with Nuclear Green LcS1 and propidium iodide, Abcam, UK). For metabolic activation experiments, cell viability was assessed using the ToxBLAzer DualScreen Kit (Thermo Fisher Scientific) to capture the remaining toxicity in ERα-UAS-bla GripTite after treatment with the aCYP catalyst (details in Text S2.4).
(§3) For ARE, the concentration that triggered an induction ratio of 1.5 (ECIR1.5) was used as the benchmark value, as detailed in Text S2.5. IC10 values also served as a threshold for data analysis in all assays; only concentrations below IC10 were considered when deriving EC10 or ECIR1.5. […]
(§4) S2: Cell culture and bioassays
(§5) S2.1: Cell Culturing Conditions
(§6) All suppliers and sources are given in detail in SI-Excel S3. The bioassay media for the different assays were prepared as follows: Assay medium for ER alpha-UAS-bla GripTite (ERα) and PPAR gamma-UAS-bla 293H (PPARγ) was prepared with 98% Opti-MEM, supplemented with 2% charcoal-stripped FBS, and 100 U/mL penicillin-streptomycin. MitoOxTox and AhR assay medium was comprised of 90% DMEM with GlutaMAX, supplemented with 10% FBS, and 100 U/mL penicillin-streptomycin. Neurotoxicity assay medium consisted of the neurobasal […]
(§7) (1 picture or pasted object on this page, not shown here) […]
(§8) medium, supplemented with 2% B-27 Supplement and 2 mM GlutaMAX Supplement. SH - SY5Y cells were differentiated with 10 µM all-trans retinoic acid prior to the assay.
(§9) S2.2: Cell Seeding and Incubation. For all bioassays, cell suspensions in the respective assay medium were dispensed into each well of 384-well plates using a MultiFlo Dispenser (Biotek, (now Agilent), Winooski, VT, U.S.). After seeding, the plates were incubated at 37° C and 5% CO₂ for […]. The final cell densities and plate types were as follows: Black poly-D-lysine coated 384-well plates (Product No. 354663, Corning Inc., NYC, U.S.) were used for PPARγ:
(§10) 6500 cells/well, ERα: 5000 cells/well. White 384-well plates with a clear bottom (Product No.
(§11) 781098, Greiner, Kremsmünster, Austria) were utilized for the MitoOxTox assay: 2650

[2] = tested on: SH-SY5Y cells; assay: cells; settings: for EC10: Homo sapiens, SH-SY5Y; for Specificity ratio (SRbaseline) SRNOI: against baseline cytotoxicity; for Relative effect potency REPNOI: relative to BPA;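 as to Relative effect potency REPNOI: EC10 of BPA divided by EC10 of the test compound so values above 1 mean more potent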;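 as to Specificity ratio (SRbaseline) SRNOI: ratio of predicted baseline cytotoxicity IC10 to the neurite outgrowth inhibition EC10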
Description: as §1, §2, §3, §4, §5, §6, §7, §8, §9, §10, §11

[3] = tested on: H4IIe (AhR CALUX); settings: for Toxic ratio (TR) TRAhR: against baseline cytotoxicity; for IC10, linear: linear model fit; for IC10, H4IIe, AhR: H4IIe (AhR assay cells)
Experimental: as §2
(§12) For ARE, the concentration that triggered an induction ratio of 1.5 (ECIR1.5) was used as the benchmark value, as detailed in Text S2.5. IC10 values also served as a threshold for data analysis in all assays; only concentrations below IC10 were considered when deriving EC10 or ECIR1.5.
(§13) We measured the cytotoxicity of BPA and its alternatives in HEK293H (PPARγ), HEK293T (ERα), H4IIe (AhR CALUX), MCF7 (ARE/MMP), and differentiated SH-SY5Y cells (Table S6). […]
as §9, with “coated 384-well plates (Product No. 354663, Corning Inc., NYC, U.S.) were used for PPARγ:” left out
as §10
(§14) NYC, U.S.) for AhR: 3250 cells/well. Black Collagen I coated plates were used (Product No.
(§15) S2.3: Chemical Dosing and Assay Analysis Procedures. The dosing procedure and high-throughput assay workflow have been described in detail before. 9 The dosing concentrations […]
(§16) Stock solutions were then either added directly to the respective cell culture medium or evaporated under nitrogen, followed by replenishment with fresh medium. The final solvent content in each well was kept below 1% for methanol, 0% for acetonitrile.
(§17) Dosing plates were prepared as 11 -step serial dilutions using a Hamilton Microlab Star robotic system (Hamilton, Bonaduz, Switzerland), and chemicals were dosed in duplicates by transferring 10 μL twice from the dosing plates to the cell plates . After quantifying cell confluency as described in S2. 4., the exposed cells were incubated at 37° C and 5% CO₂ for an additional 24 h. All chemicals were tested in all assays with at least three independent […]
(§18) S2.4: Cell Viability Measurement s and bioanalytical protocols . The confluency as a measure of cell viability was determined with an IncuCyte S3 Live -Cell Analysis System (Sartorius AG, Essen, Germany). With this method the confluency of cells in a microscopy image are normalized to control wells without cells and compared before and after 24 hours of exposure.
(§19) This method has been described previously 13. […]

[4] = tested on: HEK293H (PPARγ)
Experimental: as §2, §12, §13
as §9, with “coated 384-well plates (Product No. 354663, Corning Inc., NYC, U.S.) were used for PPARγ:” left out
as §10, §14, §15, §16, §17, §18, §19

[5] = tested on: HEK293T (ERα)
Experimental: as §2, §12, §13
as §9, with “coated 384-well plates (Product No. 354663, Corning Inc., NYC, U.S.) were used for PPARγ:” left out
as §10, §14, §15, §16, §17, §18, §19

[6] = tested on: MCF7 (ARE/MMP)
Experimental: as §2, §12, §13
as §9, with “coated 384-well plates (Product No. 354663, Corning Inc., NYC, U.S.) were used for PPARγ:” left out
as §10, §14, §15, §16, §17, §18, §19

[7] = Arec32, read-out: EC10, linear transformed
[8] = against experimental cytotoxicity
[9] = read-out: EC10, linear transformed
[10] = Bioassay AhR, cytotoxicity, dosing range all
[11] = Bioassay AhR, cytotoxicity, dosing range all, log-logistic model fit
[12] = PPARγ bioassay cytotoxicity, dosing range all
[13] = PPARγ bioassay cytotoxicity, dosing range all, linear model
[14] = PPARγ bioassay cytotoxicity, dosing range all, log-logistic model
[15] = Bioassay ARE, cytotoxicity, dosing range all, linear model fit
[16] = Bioassay ARE, cytotoxicity, dosing range all, log-logistic model fit
[17] = MMP bioassay cytotoxicity, dosing range all, linear model
[18] = MMP bioassay cytotoxicity, dosing range all, log-logistic model

Compound	EC10 [1, 7] [µM]	EC10 ([2]; read-out: EC10, NOI) [M]	EC10 ([2]; read-out: EC10, NOI (M)) [M]	EC10 ([2]; read-out: EC10, linear) [M]	EC10 [2, 9] [M]	EC10 ([2]; read-out: logEC10) [M]	Specificity ratio (SRbaseline) SRNOI [2]	Relative effect potency REPNOI [2]	Toxic ratio (TR) TRAhR [3]	EC10, linear [1]	logEC10 [1]	IC10, linear transformed [3, 10]	IC10, linear [3, 10]	logIC10 [3, 11]	IC10, H4IIe, AhR ([3]; cytotoxicity) [µM]	IC10, linear transformed [4, 12]	IC10, linear [4, 13]	logIC10 [4, 14]	IC10, linear [6, 15]	logIC10 [6, 16]	further results
CC(C)Oc1ccc(S(=O)(=O)c2ccc(O)cc2)cc1 [D8, 4-((4-Isopropoxyphenyl)sulfonyl)phenol]	932	0.000191	0.000191	0.000353	0.000186	0.000191	0.56	0.27	2.94	–	–	–	–	–	–	–	–	–	–	–	EC10 ([1]; Arec32, read-out: EC10, linear): 1080 µM; EC10 ([1]; Arec32, read-out: logEC10): 1230 µM; Specificity ratio (SRbaseline) SRARE ([1]; against baseline cytotoxicity): 0.11; Specificity ratio (SRcytotoxicity) SRARE [1, 8]: 1.77; ECIR1.5, ARE ([1]; effect, induction ratio 1.5): 1.22 mM; ECIR1.5, ARE (M) ([1]; induction ratio 1.5): 1.22 × 10^–3 M; log(1/EC10) AREc32 ([1]; input of the ToxPi score, values up to 1.00): 0.62; SR (ARE) ([1]; specificity ratio): < 10; Specificity ratio (SRcytotoxicity) SRNOI [2, 8]: 2.56; logIC10 ([3]; rat, 24 h): -4.56; IC10, linear [4]: no cytotoxicity; Toxic ratio (TR) TRPPARγ ([4]; against baseline cytotoxicity): 0.93; logIC10 ([4]; human, 24 h): -4.15; IC10, linear [5]: no cytotoxicity; Toxic ratio (TR) TRERα ([5]; against baseline cytotoxicity): 0.36; logIC10 ([5]; human, 24 h): -3.73; Toxic ratio (TR) TRARE ([6]; against baseline cytotoxicity, ARE readout): 0.06; Toxic ratio (TR) TRMMP ([6]; against baseline cytotoxicity, MMP readout): 0.06; logIC10 ([6]; human, 24 h): -2.67
CC(c1ccc(O)cc1)c1ccc(O)cc1 [BPE, 4,4′-Ethylidenbisphenol]	3720	0.000114	0.000114	0.000136	0.000235	0.000115	–	–	–	no effect	masked by cytotoxicity	1.06E-04	8.43E-05	-3.97	84.3	5.10E-06	6.46E-05	-4.15	1.10E-04	-4.10	IC10, HEK293, PPARγ ([4]; cytotoxicity, HEK293 (PPARγ assay cells)): 70.8 µM; IC10, linear transformed ([5]; Bioassay ERα, cytotoxicity, dosing range all): 3.62E-05; IC10, linear ([5]; Bioassay ERα, cytotoxicity, dosing range all, linear model fit): 6.74E-05; logIC10 ([5]; Bioassay ERα, cytotoxicity, dosing range all, log-logistic model fit): -4.23; IC10, HEK293, ERα ([5]; cytotoxicity, HEK293 (ERα assay cells)): 67.4 µM; IC10, linear transformed ([6]; Bioassay ARE, cytotoxicity, dosing range all): 7.96E-05; IC10, linear transformed ([6]; MMP bioassay cytotoxicity, dosing range all): 7.86E-05; IC10, linear [6, 17]: 8.57E-05; logIC10 [6, 18]: -4.10; IC10, MCF7, ARE ([6]; cytotoxicity, MCF7, ARE readout): 79.6 µM; IC10, MCF7, MMP ([6]; cytotoxicity, MCF7, MMP readout): 78.6 µM
CC1(C)C(O)C(C)(C)C1O (racemic) [r-TMCD, 2,2,4,4-Tetramethyl-1,3-cyclobutanediol (racemate)]	–	0.00599	0.00599	0.00494	0.00599	0.00603	0.17	0.00848	0.12	no effect	no effect	9.14E-03	8.29E-03	-2.04	8290	6.71E-03	no cytotoxicity	no cytotoxicity	no cytotoxicity	no cytotoxicity	IC10, linear ([5]; ERα bioassay cytotoxicity, dosing range all, linear model): no cytotoxicity; logIC10 ([5]; ERα bioassay cytotoxicity, dosing range all, log-logistic model): no cytotoxicity; IC10, linear [6, 17]: no cytotoxicity; logIC10 [6, 18]: no cytotoxicity
